In patent US8067454B2, “Thio-substituted Anthra [1, 2-d] imidazole- 6, 11-dione derivatives, preparation method and application thereof” (National Defense Medical Center, priority 2010, dated 2011):

Experiments:
[1] = system: CCRF-CEM; experiment: NCI 60-cell drug screen, Leukemia CCRF-CEM; type: cell-based, human; details: 1.00E−5 Molar
[2] = system: HL-60(TB); experiment: NCI 60-cell drug screen, Leukemia HL-60(TB); type: cell-based, human; details: 1.00E−5 Molar
[3] = system: K-562; experiment: NCI 60-cell drug screen, Leukemia K-562; type: cell-based, human; details: 1.00E−5 Molar
[4] = system: SR; experiment: NCI 60-cell drug screen, Leukemia SR; type: cell-based, human; details: 1.00E−5 Molar
[5] = system: NCI-H226; experiment: NCI 60-cell drug screen, Non-Small Cell Lung Cancer NCI-H226; type: cell-based, human; details: 1.00E−5 Molar
[6] = system: NCI-H23; experiment: NCI 60-cell drug screen, Non-Small Cell Lung Cancer NCI-H23; type: cell-based, human; details: 1.00E−5 Molar
[7] = system: NCI-H322M; experiment: NCI 60-cell drug screen, Non-Small Cell Lung Cancer NCI-H322M; type: cell-based, human; details: 1.00E−5 Molar
[8] = system: NCI-H460; experiment: NCI 60-cell drug screen, Non-Small Cell Lung Cancer NCI-H460; type: cell-based, human; details: 1.00E−5 Molar
[9] = system: NCI-H522; experiment: NCI 60-cell drug screen, Non-Small Cell Lung Cancer NCI-H522; type: cell-based, human; details: 1.00E−5 Molar
[10] = system: COLO 205; experiment: NCI 60-cell drug screen, Colon Cancer COLO 205; type: cell-based, human; details: 1.00E−5 Molar
[11] = system: HCC-2998; experiment: NCI 60-cell drug screen, Colon Cancer HCC-2998; type: cell-based, human; details: 1.00E−5 Molar
[12] = system: HCT-116; experiment: NCI 60-cell drug screen, Colon Cancer HCT-116; type: cell-based, human; details: 1.00E−5 Molar
[13] = system: HCT-15; experiment: NCI 60-cell drug screen, Colon Cancer HCT-15; type: cell-based, human; details: 1.00E−5 Molar
[14] = system: KM12; experiment: NCI 60-cell drug screen, Colon Cancer KM12; type: cell-based, human; details: 1.00E−5 Molar
[15] = system: SW-620; experiment: NCI 60-cell drug screen, Colon Cancer SW-620; type: cell-based, human; details: 1.00E−5 Molar
[16] = system: SNB-19; experiment: NCI 60-cell drug screen, CNS Cancer SNB-19; type: cell-based, human; details: 1.00E−5 Molar
[17] = system: U251; experiment: NCI 60-cell drug screen, CNS Cancer U251; type: cell-based, human; details: 1.00E−5 Molar
[18] = system: LOX IMVI; experiment: NCI 60-cell drug screen, Melanoma LOX IMVI; type: cell-based, human; details: 1.00E−5 Molar
[19] = system: MALME-3M; experiment: NCI 60-cell drug screen, Melanoma MALME-3M; type: cell-based, human; details: 1.00E−5 Molar
[20] = system: M14; experiment: NCI 60-cell drug screen, Melanoma M14; type: cell-based, human; details: 1.00E−5 Molar
[21] = system: SK-MEL-2; experiment: NCI 60-cell drug screen, Melanoma SK-MEL-2; type: cell-based, human; details: 1.00E−5 Molar
[22] = system: SK-MEL-28; experiment: NCI 60-cell drug screen, Melanoma SK-MEL-28; type: cell-based, human; details: 1.00E−5 Molar
[23] = system: SK-MEL-5; experiment: NCI 60-cell drug screen, Melanoma SK-MEL-5; type: cell-based, human; details: 1.00E−5 Molar
[24] = system: UACC-257; experiment: NCI 60-cell drug screen, Melanoma UACC-257; type: cell-based, human; details: 1.00E−5 Molar
[25] = system: UACC-62; experiment: NCI 60-cell drug screen, Melanoma UACC-62; type: cell-based, human; details: 1.00E−5 Molar
[26] = system: IGROV1; experiment: NCI 60-cell drug screen, Ovarian Cancer IGROV1; type: cell-based, human; details: 1.00E−5 Molar
[27] = system: OVCAR-4; experiment: NCI 60-cell drug screen, Ovarian Cancer OVCAR-4; type: cell-based, human; details: 1.00E−5 Molar
[28] = system: OVCAR-8; experiment: NCI 60-cell drug screen, Ovarian Cancer OVCAR-8; type: cell-based, human; details: 1.00E−5 Molar
[29] = system: NCI/ADR-RES; experiment: NCI 60-cell drug screen, Ovarian Cancer NCI/ADR-RES; type: cell-based, human; details: 1.00E−5 Molar
Experimental: In brief, cellular protein levels were determined after 48 hours of drug exposure by sulforhodamine B colorimetry. Through the use of a time 0 cell control, the cell growth can be determined for each cell line thus allowing calculations of the 50% growth inhibitory concentration (GI50), the total growth inhibition (TGI), and the 50% lethal concentration (LC50). Comparison to plates not exposed to drug permits determination of concentration and times of exposure conferring 50% net growth inhibition (GI50), TGI, and 50% cell kill (LC50).
From the data analysis it follows that approximately 95% of the actives (potent anticancer drugs) from the 60 cell line screen can be identified. By these criteria, 6 compounds (each with its certification number, refer to Table 2) of the invention were reported that having anticancer activity.
The screening system in United State National Cancer Institute (NCI) consists of 60 kinds of different human cancer cells, which can be used to assay the growth-inhibiting ability or cell toxicity of a compound against various cancer and tumor at a certain concentration.
NCI had selected 6 compounds f1-0, f1-1, f3-1, f1-11, f1-2 and f1-15 as test compounds (Table 2). Among these compounds, compound f1-1 was effective against renal cancer cell strain CAKI-1, and could achieve an inhibition effect on the growth of said cancer cell up to −8.01. Compound f1-11 could achieve inhibiting effects against leukemia cell line CCRF-CEM and RPMI-8226, up to −15.39 and −60.17, respectively. Compound f1-2 was effective against central nervous system cancer cell line SNB-75, and could achieve an effect of inhibiting said cancer cell growth up to −9.55. Compound f1-15 was effective against leukemia (blood cancer) cell line K-562, MOLT-4, and RPMI-8226, and could achieve effects of inhibiting said cancer cells growth up to −31.59, −2.90 and −13.69, respectively. Further, compound f1-15 was effective also against renal cancer cell line CAKI-1, and could achieve an effect of inhibiting said cancer cell growth up to −14.89.

[30] = system: 786-0; experiment: NCI 60-cell drug screen, Renal Cancer 786-0; type: cell-based, human; details: 1.00E−5 Molar
[31] = system: A498; experiment: NCI 60-cell drug screen, Renal Cancer A498; type: cell-based, human; details: 1.00E−5 Molar
[32] = system: RXF 393; experiment: NCI 60-cell drug screen, Renal Cancer RXF 393; type: cell-based, human; details: 1.00E−5 Molar
[33] = system: SN12C; experiment: NCI 60-cell drug screen, Renal Cancer SN12C; type: cell-based, human; details: 1.00E−5 Molar
[34] = system: TK-10; experiment: NCI 60-cell drug screen, Renal Cancer TK-10; type: cell-based, human; details: 1.00E−5 Molar
[35] = system: UO-31; experiment: NCI 60-cell drug screen, Renal Cancer UO-31; type: cell-based, human; details: 1.00E−5 Molar
[36] = system: PC-3; experiment: NCI 60-cell drug screen, Prostate Cancer PC-3; type: cell-based, human; details: 1.00E−5 Molar
[37] = system: MCF7; experiment: NCI 60-cell drug screen, Breast Cancer MCF7; type: cell-based, human; details: 1.00E−5 Molar
[38] = system: MDA-MB-231/ATCC; experiment: NCI 60-cell drug screen, Breast Cancer MDA-MB-231/ATCC; type: cell-based, human; details: 1.00E−5 Molar
[39] = system: T-47D; experiment: NCI 60-cell drug screen, Breast Cancer T-47D; type: cell-based, human; details: 1.00E−5 Molar
[40] = system: SVG p12; experiment: MTT assay, SVG p12 normal cell; details: concentration 10 μM, normal cell

SMILES | Growth Percent, CCRF-CEM [1] [%] | Growth Percent, HL-60(TB) [2] [%] | Growth Percent, K-562 [3] [%] | Growth Percent, SR [4] [%] | Growth Percent, NCI-H226 [5] [%] | Growth Percent, NCI-H23 [6] [%] | Growth Percent, NCI-H322M [7] [%] | Growth Percent, NCI-H460 [8] [%] | Growth Percent, NCI-H522 [9] [%] | Growth Percent, COLO 205 [10] [%] | Growth Percent, HCC-2998 [11] [%] | Growth Percent, HCT-116 [12] [%] | Growth Percent, HCT-15 [13] [%] | Growth Percent, KM12 [14] [%] | Growth Percent, SW-620 [15] [%] | Growth Percent, SNB-19 [16] [%] | Growth Percent, U251 [17] [%] | Growth Percent, LOX IMVI [18] [%] | Growth Percent, MALME-3M [19] [%] | Growth Percent, M14 [20] [%] | also measured
CCCSc1nc2ccc3c(c2[nH]1)C(=O)c1ccccc1C3=O [f1-2, 2-(propylthio)-1H-anthra[1,2-d]imidazole-6,11-dione] | 70.83 | 74.23 | 62.88 | 71.03 | 50.24 | 69.80 | 76.02 | 68.12 | 72.38 | 102.68 | 81.92 | 47.69 | 67.65 | 55.17 | 104.18 | 82.03 | 62.95 | 62.57 | 88.24 | 89.99 | Growth Percent, SK-MEL-2 [21]: 79.33%; Growth Percent, SK-MEL-28 [22]: 92.59%; Growth Percent, SK-MEL-5 [23]: 78.52%; Growth Percent, UACC-257 [24]: 86.31%; Growth Percent, UACC-62 [25]: 51.07%; Growth Percent, IGROV1 [26]: 53.72%; Growth Percent, OVCAR-4 [27]: 42.16%; Growth Percent, OVCAR-8 [28]: 44.68%; Growth Percent, NCI/ADR-RES [29]: 50.22%; Growth Percent, 786-0 [30]: 21.82%; Growth Percent, A498 [31]: 57.26%; Growth Percent, RXF 393 [32]: 20.07%; Growth Percent, SN12C [33]: 80.41%; Growth Percent, TK-10 [34]: 35.55%; Growth Percent, UO-31 [35]: 24.49%; Growth Percent, PC-3 [36]: 66.76%; Growth Percent, MCF7 [37]: 58.97%; Growth Percent, MDA-MB-231/ATCC [38]: 26.44%; Growth Percent, T-47D [39]: 53.72%; Cell survival rate (%) SVG p12 [40]: 99%
O=C1c2ccccc2C(=O)c2c1ccc1nc(SCCN3CCCC3)[nH]c21 [f1-11] | −15.39 | 37.41 | 26.94 | 20.25 | 88.06 | 66.93 | 73.18 | 34.08 | 81.51 | 17.13 | 71.50 | 38.81 | 40.36 | 19.62 | 22.75 | 60.47 | 69.07 | 11.89 | 112.31 | 70.87 | Growth Percent, SK-MEL-2 [21]: 106.62%; Growth Percent, SK-MEL-28 [22]: 100.23%; Growth Percent, SK-MEL-5 [23]: 78.52%; Growth Percent, UACC-257 [24]: 92.77%; Growth Percent, UACC-62 [25]: 80.95%; Growth Percent, IGROV1 [26]: 23.20%; Growth Percent, OVCAR-4 [27]: 57.23%; Growth Percent, OVCAR-8 [28]: 49.38%; Growth Percent, NCI/ADR-RES [29]: 53.74%; Growth Percent, 786-0 [30]: 77.12%; Growth Percent, A498 [31]: 71.37%; Growth Percent, RXF 393 [32]: 22.62%; Growth Percent, SN12C [33]: 52.94%; Growth Percent, TK-10 [34]: 36.86%; Growth Percent, UO-31 [35]: 21.22%; Growth Percent, PC-3 [36]: 6.90%; Growth Percent, MCF7 [37]: 30.88%; Growth Percent, MDA-MB-231/ATCC [38]: 63.52%; Growth Percent, T-47D [39]: 83.06%; Cell survival rate (%) SVG p12 [40]: 98 ± 1%
